Assay results published in PubChem BioAssay AID2305 (GlaxoSmithKline (GSK), 2010).

Tested on: P. falciparum 3D7 growth, pLDH absorbance
Assay: blood-stage malaria parasite growth potency – strain 3D7, dose response (AID 2305)

In order of falling IC50:
1. COc1cc(Cc2cnc(N)nc2N)cc(OCCCc2cc(OCc3ccccc3)no2)c1OC  1870 nM
2. COc1ccccc1-c1ccc(C(=O)NCC2CCCN(Cc3cccc(C(F)(F)F)c3)C2)s1 (stereo unspecified)  1540 nM
3. N#Cc1ccccc1N1CCN(C2CCC(NC(=O)c3n[nH]c4cc(C(F)(F)F)ccc34)CC2)CC1 (stereo unspecified)  1370 nM
4. OC1CCCN(Cc2ccc(-c3cccc(-c4nc5ccccc5[nH]4)c3)cc2)C1 (stereo unspecified)  1340 nM
5. FC(F)(F)c1ccc2c(NCCc3ccccc3)ccnc2c1  1270 nM
6. CCCc1ccc(S(=O)(=O)NC2CCN(c3ccnc(Nc4ccc(OC)cc4)n3)C2)cc1 (stereo unspecified)  1190 nM
7. FC(F)(F)c1ccc2nccc(NN=Cc3ccccc3)c2c1  1170 nM
8. O=C(NC1CCCCN(Cc2ccccc2O)C1)c1cc(F)cc(F)c1 (stereo unspecified)  1170 nM
9. COc1cc2nc(SCCCC#N)n(C3CCCCCC3)c(=N)c2cc1OC  1140 nM
10. O=C(Nc1cccc(N2CCC(NCCCn3ccnc3)CC2)c1)c1cccc(C(F)(F)F)c1  1110 nM
11. CCCCCCn1c(Sc2ccc(C#N)c([N+](=O)[O-])c2)nnc1-c1ccc(N(C)C)cc1  1070 nM
12. CCN1CCC(N(Cc2ccc(-c3ccc(C(F)(F)F)cc3)cc2)C(=O)Cn2c(CCc3cccc(F)c3F)nc(=O)c3ccccc32)CC1  1060 nM
13. CN(CCc1ccccn1)c1cccc2c1nc(-c1cccnc1)n2CCNCc1ccccc1  1060 nM
14. NC(N)=Nc1nc(-c2cccc(NC(=O)C(F)(F)F)c2)cs1  1050 nM
15. CN(c1cc(NC(=O)c2cccs2)ccn1)C1CCN(Cc2ccccc2)CC1  1020 nM
16. CN(CCc1ccccc1)c1ncc(-c2ccccc2CNCc2ccccc2O)cn1  1020 nM
17. N#Cc1ccc2c(c1)CCN(CCC1CCC(NC(=O)c3cc4ccccc4[nH]3)CC1)CC2 (stereo unspecified)  1010 nM
18. Cc1cc(NC2CCCC2)nc(Nc2ccccc2)n1  990 nM
19. CCOC(=O)C1=C(C)N=c2sc(=Cc3cc(Cl)ccc3O)c(=O)n2C1c1cc(OC)c(OC)cc1Br (stereo unspecified)  990 nM
20. O=S1C(Cl)=C(c2ccc(Cl)cc2)c2ccc(Cl)cc21 (stereo unspecified)  990 nM
21. O=C(/C=C/c1cc(C(F)(F)F)ccc1F)N1CCC(CN2CCC(c3c[nH]c4ccccc34)CC2)CC1  990 nM
22. CC(=O)N(C)C1CCN(Cc2ccc(-c3ccc(-c4nc5ccc(F)cc5[nH]4)s3)cc2)C1 (stereo unspecified)  970 nM
23. O=C(C=Cc1ccc(Cl)c(Cl)c1)NCCCCCN1CCCC(CCCNS(=O)(=O)c2cccc(C(F)(F)F)c2)C1 (stereo unspecified)  960 nM
24. O=C(Nc1ccc(N2CCCN(Cc3cccc(F)c3)CC2)cc1)c1ccccc1  960 nM
25. CN1CCN(CCCN(Cc2cccc(-c3cccc(CNCc4ccc5c(c4)OCO5)c3)c2)C(=O)CCC2CCCC2)CC1  950 nM
26. CC[C@H]1CN2CC[C@H]1C[C@@H]2[C@@H](OC(=O)c1ccc(Cl)cc1)c1ccnc2ccc(OC)cc12  920 nM
27. OC(CNc1ccnc(Nc2cccc(OCCCN3CCOCC3)c2)n1)c1ccccc1 (stereo unspecified)  920 nM
28. Cc1cc(NN=Cc2ccccc2F)c2ccccc2n1  920 nM
29. COc1ccc(Cn2c(Nc3cccc(C(F)(F)F)c3)nc3cc(C(=O)NCCN4CCCC4)cnc32)cc1Cl  920 nM
30. COc1ccc(NC(=O)/C=C/c2ccc(-c3ccccc3)cc2)cc1N1CCN(C)CC1  910 nM
31. COc1ccccc1Cn1ccnc1SCC(=O)Nc1cccc(C(F)(F)F)c1  910 nM
32. COc1ccc2c(c1CNCCCCCCNCc1c(OC)ccc3c1CCCC3)CCCC2  910 nM
33. Cc1c(Oc2ccc(-n3ccnc3)cc2)ncnc1N1CCC2(CC1)CNCc1ccccc12  890 nM
34. CCc1cc(I)c2c(c1)C(NCCCNc1cc(=O)c3ccccc3[nH]1)CCN2 (stereo unspecified)  890 nM
35. CSC1=NC2(CC(c3cccc(C)c3)c3cc(Cl)c(O)cc3O2)CC(C)(C)N1 (stereo unspecified)  880 nM
36. Cc1cccc(C(=O)Nc2ccnc(N(C)C3CCN(CC(C)C)CC3)c2)c1  870 nM
37. Cc1cc(OCC2CCN(c3ccc(C(=O)NC4CC4)cn3)CC2)ccc1F  870 nM
38. CC(=O)Nc1ccc(CN2CCCN(c3cc(NC(=O)c4cccc(C)c4)ccn3)CC2)cc1  860 nM
39. Cc1cc(N(C)C)nc(Nc2ccc(NC(=O)CCc3ccccc3)cc2)n1  850 nM
40. O=C(Nc1cccc(N2CCC(NCCCc3ccncc3)CC2)c1)c1cccc(C(F)(F)F)c1  850 nM
41. CN1CCCN(Cc2ccc(-c3cccc(NC(=O)c4cccc(Cl)c4)c3)cc2)CC1  840 nM
42. Cc1ccc(O)cc1Nc1ccnc2cc(-c3cccc(CNCCS(C)(=O)=O)c3)ccc12  840 nM
43. CN1CCN(CCCN(Cc2ccc(-c3cccc(CNCc4ccc5c(c4)OCO5)c3)cc2)C(=O)NCCc2ccccc2)CC1  840 nM
44. COc1ccc(CN(C)Cc2ccc(NC(=O)c3cccc4c(=O)c5cccc(C)c5[nH]c34)cc2)cc1OC  840 nM
45. Cc1cc(N2CCCC2)nc(Nc2ccc(NC(=O)CC(C)C)cc2)n1  840 nM
46. O=C(/C=C/c1ccc(Cl)c(Cl)c1)NCCCCCN1CCC(NC(=O)Nc2ccc(F)c(F)c2)CC1  840 nM
47. COc1ccc2ncc(Cl)c(CCN3CC[C@@H](CNCc4cc5c(cn4)OCS5)C3)c2n1  810 nM
48. COc1cc2c(cc1S(=O)(=O)c1ccc(NC(=O)c3ccc4ccccc4c3)cc1)CCN(C)CC2  800 nM
49. O=C(Nc1ccccc1-c1ccccc1)C1CCCN1C(=O)Nc1ccc(Cl)cc1 (stereo unspecified)  790 nM
50. O=C(NC1CCCCN(Cc2ccccc2O)C1)c1cccc(C(F)(F)F)c1 (stereo unspecified)  790 nM
51. Cc1cc(N[C@@H](Cc2ccccc2)C(=O)NCc2cccc(F)c2)nc(NCCOc2ccccc2)n1  790 nM
52. CCCc1c(C(=O)NC2CCC(CN3CCC(c4c[nH]c5ccccc45)CC3)CC2)cnn1-c1ccc(Cl)cc1 (stereo unspecified)  760 nM
53. CN(Cc1ccc(-c2ccc(C(F)(F)F)cc2)cc1)C(=O)Cn1c(CCc2cccc(F)c2F)nc(=O)c2ccc(N3CCN(CCN4CCCCC4)CC3)nc21  760 nM
54. Cc1cccc2[nH]c(-c3ccc(-c4ccc(NC(=O)C5CCN(C)CC5)cc4)cc3)nc12  750 nM
55. COc1cccc(C=CC(=O)NC2CCC(CN3CCC(c4c[nH]c5ccccc45)CC3)CC2)c1OC (stereo unspecified)  740 nM
56. COC(=O)c1ccc2c(c1)nc(Nc1cccc(F)c1)n2CC(O)c1ccccn1 (stereo unspecified)  730 nM
57. O=C(/C=C/c1ccc(Br)cc1)NCCCCCN1CCC(c2c[nH]c3ccccc23)CC1  720 nM
58. COc1cc2nc(NCCc3ccccc3)nc(NCc3cnn(C)c3C)c2cc1OC  710 nM
59. Cc1cc(N[C@@H](Cc2ccccc2)C(=O)NCCOc2ccccc2)nc(NCc2ccccc2C)n1  710 nM
60. c1cncc(CCNCc2cccc(-c3csc(-c4nc5ccccc5[nH]4)c3)c2)c1  700 nM
61. COc1ccc2nccc(N3CCC(CCNCc4ccc5c(n4)NC(=O)CO5)CC3)c2c1  700 nM
62. COc1ccc(Nc2ncc3c(-c4cccc(NC(=O)Cc5cccc(O)c5)c4)c[nH]c3n2)cc1OC  700 nM
63. COc1ccc2c(NN=Cc3cccnc3)ccnc2c1  680 nM
64. C=C[C@]1(C)C[C@@H](OC(=O)c2n[nH]c3ccccc3c2=O)[C@]2(C)[C@H](C)CC[C@]3(CCC(=O)[C@H]32)[C@@H](C)[C@@H]1O  670 nM
65. CNC(=O)COC(=O)c1c2c(nc3ccccc13)C(=Cc1ccc3c(c1)OCO3)CCC2  640 nM
66. COc1nc(NCC(C)C)nc(Oc2ccc(=O)n(Cc3ccccc3)n2)n1  630 nM
67. Cc1cc(N2CCCC2)nc(Nc2ccc(NC(=O)Cc3ccccc3)cc2)n1  610 nM
68. COc1ccc(NC(=O)c2ccc(OCCCCCCCOc3ccc(C(=O)Nc4ccc(OC)c(N5CCN(C)CC5)c4)cc3)cc2)cc1N1CCN(C)CC1  600 nM
69. CC(=O)c1cccc(NC(=O)C2c3ccccc3C(=O)N(CC(C)C)C2c2cccs2)c1 (stereo unspecified)  590 nM
70. COc1ccc(CNCCCCCCNCc2ccc(OC)c3ccccc23)c2ccccc12  580 nM
71. COc1cc2nccc(Nc3ccc(OCc4ccc(NC(C)=O)cc4)cc3)c2cc1OC  550 nM
72. COc1cc(CNCCC(C)C)ccc1OCc1cccc(COc2ccc(CNCCC(C)C)cc2OC)c1  490 nM
73. CC(=O)Nc1ccc(C#Cc2ccc(-c3c(C)[nH]c(C)c(Cl)c3=O)cc2)cc1  460 nM
74. CCNc1cc(C(=O)N[C@@H](Cc2ccccc2)[C@H](O)CNC(C)(C)CCCC(C)C)cc(N2CCCCS2(=O)=O)c1  450 nM
75. FC(F)(F)c1cc(Nc2ccc(Oc3ccccc3)cc2)c2cc(-c3ccncc3)ccc2n1  450 nM
76. O=c1[nH]ccc2nc(N[C@@H]3CCNC3)nc(Nc3ccc4c(c3)S(=O)(=O)CC4)c12  380 nM
77. COC(=O)C1(NC(=O)c2ccc(-n3nc(C)c(-c4ccccc4)c3N)cc2)CCCC1  370 nM
78. COc1cc(-c2ccccc2)ccc1C(=O)Nc1ccc2c(c1)N(C)CCC2  330 nM
79. COc1ccc2nccc([C@@H](O)CN3CCC(NCc4ccc5c(c4)OCCO5)CC3)c2c1  290 nM
80. CC(CN(C)C)C(=O)Nc1cccc(-c2ccc(-c3nc4ccc(C(F)(F)F)cc4[nH]3)cc2)c1 (stereo unspecified)  250 nM
81. COc1cc(Nc2ccnc3cc(-c4nccs4)ccc23)ccc1OCCCc1nc2ccccc2[nH]1  240 nM
82. CCn1cc2c3c(cc(C(=O)N[C@@H](Cc4ccccc4)[C@H](O)CNC4CCOCC4)cc31)N(C)S(=O)(=O)CC2  210 nM
83. O=C(Nc1ccc(-c2ccc(-c3nc4ccccc4[nH]3)s2)cc1)Nc1ccc(F)c(F)c1F  190 nM
84. Cc1cc(Nc2ccc3ccccc3c2)n2ncnc2n1  170 nM
85. c1cc(-c2ccc(CNCc3ccsc3)cc2)cc(-c2nc3ccccc3[nH]2)c1  160 nM
86. CC(C)Cn1ncc2c3c(N)nc(N)nc3ccc21  160 nM
87. CN1CCN(Cc2ccc(-c3ccc4c(Nc5ccc(F)cc5Cl)ccnc4c3)o2)CC1  140 nM
88. COc1ccc2nccc(N(C)CC3(O)CCN(CCc4ccc5c(c4)NC(=O)CS5)CC3)c2n1  140 nM
89. CCn1ccc2c(N3CCCC3=O)cc(C(=O)N[C@@H](Cc3ccccc3)[C@H](O)CNC3CCCCC3)cc21  120 nM
90. CC[C@H]1CN2CC[C@@H]1C[C@@H]2[C@@H](O)c1cc(-c2ccc(F)cc2)nc2ccc(OC)cc12  110 nM
91. CN1CCN(c2ccnc3ccc(NC(=O)Nc4ccc(Cl)cc4)cc23)CC1  110 nM
92. COc1ccccc1NC(=O)Nc1cccc(-c2cccc(-c3nc4c(C)cccc4[nH]3)c2)c1  100 nM
93. Cc1cc(C(=O)NC2CCN(CC3(c4ccc(Cl)cc4)CCC3)CC2)on1  90 nM
94. CO/C=C(/C(=O)OC)c1ccccc1Oc1cc(Oc2ccccc2C#N)ncn1  40 nM
95. Cc1nc(Nc2cc(Cl)ccc2O)nc(Nc2cc(Cl)ccc2O)c1[N+](=O)[O-]  30 nM
96. CCN(CC)Cc1cc(Nc2c3ccc(Cl)cc3nc3cccc(OC)c23)ccc1O  30 nM
